Laboratory results as given in article PMC4774911, “Biochemical Screening of Five Protein Kinases from Plasmodium falciparum against 14,000 Cell-Active Compounds” (PLoS ONE, 2016).
pIC50: −log10 of the molar value. Values joined by “and” are separate entries in the source; they are usually repeats but may differ in a detail not shown here. Identical values can stand only once.

Legend:
Assay in all cases: biochemical
BMPR2 = molecular target: T1, BMPR2 (Homo sapiens, UniProt Q13873)
T1 sequence (Q13873 1-1038): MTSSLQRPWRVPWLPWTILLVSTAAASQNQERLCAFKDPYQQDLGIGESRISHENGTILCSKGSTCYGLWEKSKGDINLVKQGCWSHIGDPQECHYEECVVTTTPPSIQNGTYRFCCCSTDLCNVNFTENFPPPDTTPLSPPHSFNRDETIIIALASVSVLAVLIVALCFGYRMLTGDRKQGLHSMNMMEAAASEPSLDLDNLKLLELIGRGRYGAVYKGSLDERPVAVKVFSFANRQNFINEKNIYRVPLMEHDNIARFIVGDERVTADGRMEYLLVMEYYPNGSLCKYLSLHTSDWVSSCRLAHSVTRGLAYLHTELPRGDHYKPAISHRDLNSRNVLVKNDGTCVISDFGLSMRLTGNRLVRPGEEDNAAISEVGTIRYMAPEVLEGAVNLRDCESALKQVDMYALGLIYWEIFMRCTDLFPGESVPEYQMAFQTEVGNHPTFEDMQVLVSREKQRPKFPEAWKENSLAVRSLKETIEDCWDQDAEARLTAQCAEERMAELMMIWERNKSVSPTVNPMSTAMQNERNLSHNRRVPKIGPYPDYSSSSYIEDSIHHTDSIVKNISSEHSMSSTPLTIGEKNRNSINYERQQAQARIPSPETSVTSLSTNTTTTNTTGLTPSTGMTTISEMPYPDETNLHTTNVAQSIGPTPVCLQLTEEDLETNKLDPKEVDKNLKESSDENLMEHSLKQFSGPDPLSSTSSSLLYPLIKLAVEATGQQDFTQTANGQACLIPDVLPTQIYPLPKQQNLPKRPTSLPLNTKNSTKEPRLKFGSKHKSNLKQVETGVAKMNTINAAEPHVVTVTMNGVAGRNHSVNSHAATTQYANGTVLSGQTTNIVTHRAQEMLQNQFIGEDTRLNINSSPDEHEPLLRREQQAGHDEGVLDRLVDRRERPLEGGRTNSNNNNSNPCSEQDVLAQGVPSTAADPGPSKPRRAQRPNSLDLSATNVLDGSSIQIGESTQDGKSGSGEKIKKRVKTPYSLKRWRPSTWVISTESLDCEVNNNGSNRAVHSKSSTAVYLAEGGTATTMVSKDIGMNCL

PIP4K2B = molecular target: T2, PIP4K2B (Homo sapiens, UniProt P78356)
T2 sequence (P78356 1-416): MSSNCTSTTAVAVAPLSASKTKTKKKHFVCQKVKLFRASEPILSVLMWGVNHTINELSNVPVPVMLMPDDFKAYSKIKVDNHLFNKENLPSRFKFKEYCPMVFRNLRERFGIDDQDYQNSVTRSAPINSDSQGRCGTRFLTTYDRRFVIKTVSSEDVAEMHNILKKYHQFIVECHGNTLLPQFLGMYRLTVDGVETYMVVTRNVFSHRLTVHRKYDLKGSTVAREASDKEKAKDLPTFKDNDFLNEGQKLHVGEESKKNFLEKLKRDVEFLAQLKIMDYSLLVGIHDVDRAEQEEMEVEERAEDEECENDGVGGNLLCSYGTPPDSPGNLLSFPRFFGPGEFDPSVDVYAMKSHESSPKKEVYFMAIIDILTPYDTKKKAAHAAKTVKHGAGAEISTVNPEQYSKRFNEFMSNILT

RPS6KA1 = RPS6KA1 (Homo sapiens, UniProt Q15418)
Chain of RPS6KA1 (Q15418 whole entry): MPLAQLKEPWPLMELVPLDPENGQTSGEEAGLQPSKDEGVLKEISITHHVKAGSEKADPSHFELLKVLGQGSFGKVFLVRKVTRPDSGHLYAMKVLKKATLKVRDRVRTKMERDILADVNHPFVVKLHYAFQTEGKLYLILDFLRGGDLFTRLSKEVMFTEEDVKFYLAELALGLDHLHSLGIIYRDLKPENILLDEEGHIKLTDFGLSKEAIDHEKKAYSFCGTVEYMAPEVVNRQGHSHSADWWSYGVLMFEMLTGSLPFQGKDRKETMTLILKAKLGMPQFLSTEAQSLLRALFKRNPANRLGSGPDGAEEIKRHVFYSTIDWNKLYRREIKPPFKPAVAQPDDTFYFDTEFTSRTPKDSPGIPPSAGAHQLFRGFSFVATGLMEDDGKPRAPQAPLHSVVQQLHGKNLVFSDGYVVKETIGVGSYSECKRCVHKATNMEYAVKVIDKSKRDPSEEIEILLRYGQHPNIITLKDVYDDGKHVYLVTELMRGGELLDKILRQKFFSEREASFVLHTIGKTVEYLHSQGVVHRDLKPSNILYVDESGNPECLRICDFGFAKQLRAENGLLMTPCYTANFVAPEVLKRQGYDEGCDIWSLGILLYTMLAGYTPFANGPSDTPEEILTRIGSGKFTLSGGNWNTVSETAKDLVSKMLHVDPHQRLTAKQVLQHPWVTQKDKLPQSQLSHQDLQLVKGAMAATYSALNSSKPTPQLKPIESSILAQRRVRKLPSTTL

CDK6 = CDK6 (Homo sapiens, UniProt Q00534)
Chain of CDK6 (Q00534 whole entry): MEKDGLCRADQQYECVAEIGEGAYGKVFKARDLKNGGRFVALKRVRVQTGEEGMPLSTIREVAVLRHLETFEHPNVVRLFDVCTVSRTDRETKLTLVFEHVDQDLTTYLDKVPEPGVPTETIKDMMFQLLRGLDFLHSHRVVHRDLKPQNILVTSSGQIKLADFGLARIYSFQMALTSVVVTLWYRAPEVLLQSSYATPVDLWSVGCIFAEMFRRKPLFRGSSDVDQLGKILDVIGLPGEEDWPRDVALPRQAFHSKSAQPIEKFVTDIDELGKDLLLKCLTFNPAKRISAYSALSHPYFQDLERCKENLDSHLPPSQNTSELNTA

ACVR2B = ACVR2B (Homo sapiens, UniProt Q13705)
CHEK1 = molecular target: T3, CHEK1 (Homo sapiens, UniProt O14757)
T3 sequence (O14757 1-476): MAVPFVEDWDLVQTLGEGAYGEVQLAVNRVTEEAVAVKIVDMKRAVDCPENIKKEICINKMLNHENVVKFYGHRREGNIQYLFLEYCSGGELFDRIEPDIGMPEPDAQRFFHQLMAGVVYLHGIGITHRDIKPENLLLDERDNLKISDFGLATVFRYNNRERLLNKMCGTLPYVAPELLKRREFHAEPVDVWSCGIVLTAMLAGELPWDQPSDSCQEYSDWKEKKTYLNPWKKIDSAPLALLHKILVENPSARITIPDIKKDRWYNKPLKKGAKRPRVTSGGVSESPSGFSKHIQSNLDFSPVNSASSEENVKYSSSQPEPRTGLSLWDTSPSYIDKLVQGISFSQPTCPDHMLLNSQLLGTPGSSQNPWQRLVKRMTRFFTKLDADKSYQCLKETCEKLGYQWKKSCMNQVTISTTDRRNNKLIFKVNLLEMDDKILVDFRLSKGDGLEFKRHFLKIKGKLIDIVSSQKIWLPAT

RPS6KA3 = RPS6KA3 (Homo sapiens, UniProt P51812)
Chain of RPS6KA3 (P51812 whole entry): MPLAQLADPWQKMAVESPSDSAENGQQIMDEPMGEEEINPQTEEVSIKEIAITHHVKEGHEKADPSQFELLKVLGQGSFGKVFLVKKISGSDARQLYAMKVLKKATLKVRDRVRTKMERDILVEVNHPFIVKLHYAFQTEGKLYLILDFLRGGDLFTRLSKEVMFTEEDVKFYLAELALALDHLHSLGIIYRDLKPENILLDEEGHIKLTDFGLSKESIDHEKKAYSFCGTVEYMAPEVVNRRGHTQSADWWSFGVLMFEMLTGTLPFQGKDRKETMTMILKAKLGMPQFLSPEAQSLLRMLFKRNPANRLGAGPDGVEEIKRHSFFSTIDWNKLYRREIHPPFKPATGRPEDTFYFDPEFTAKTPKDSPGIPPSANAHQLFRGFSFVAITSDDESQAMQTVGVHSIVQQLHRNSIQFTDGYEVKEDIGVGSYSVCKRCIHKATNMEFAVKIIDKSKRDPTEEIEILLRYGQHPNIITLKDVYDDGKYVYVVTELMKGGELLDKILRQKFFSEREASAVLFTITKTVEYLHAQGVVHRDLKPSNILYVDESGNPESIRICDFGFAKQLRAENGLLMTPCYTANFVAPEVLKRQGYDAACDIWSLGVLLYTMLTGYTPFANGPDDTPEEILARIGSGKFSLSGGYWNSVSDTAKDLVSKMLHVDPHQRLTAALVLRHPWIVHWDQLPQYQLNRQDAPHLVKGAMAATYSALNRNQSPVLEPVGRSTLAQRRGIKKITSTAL

NEK3 = molecular target: T4, NEK3 (Homo sapiens, UniProt P51956)
T4 sequence (P51956 1-506): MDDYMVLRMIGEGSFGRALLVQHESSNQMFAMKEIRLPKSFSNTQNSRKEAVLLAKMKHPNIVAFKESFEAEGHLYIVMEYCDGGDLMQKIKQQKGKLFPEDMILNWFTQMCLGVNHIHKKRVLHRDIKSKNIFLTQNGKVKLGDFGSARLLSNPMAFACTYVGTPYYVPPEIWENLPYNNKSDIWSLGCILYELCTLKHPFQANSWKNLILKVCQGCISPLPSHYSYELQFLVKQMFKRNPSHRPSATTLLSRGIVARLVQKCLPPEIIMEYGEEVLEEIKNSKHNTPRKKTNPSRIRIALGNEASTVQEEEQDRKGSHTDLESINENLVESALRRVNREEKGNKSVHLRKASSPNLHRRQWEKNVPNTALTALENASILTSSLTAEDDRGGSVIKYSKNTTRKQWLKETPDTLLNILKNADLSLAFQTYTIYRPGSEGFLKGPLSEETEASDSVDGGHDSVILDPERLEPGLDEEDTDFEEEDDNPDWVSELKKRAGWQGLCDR

CDK10 = CDK10 (Homo sapiens, UniProt Q15131)
Chain of CDK10 (Q15131 whole entry): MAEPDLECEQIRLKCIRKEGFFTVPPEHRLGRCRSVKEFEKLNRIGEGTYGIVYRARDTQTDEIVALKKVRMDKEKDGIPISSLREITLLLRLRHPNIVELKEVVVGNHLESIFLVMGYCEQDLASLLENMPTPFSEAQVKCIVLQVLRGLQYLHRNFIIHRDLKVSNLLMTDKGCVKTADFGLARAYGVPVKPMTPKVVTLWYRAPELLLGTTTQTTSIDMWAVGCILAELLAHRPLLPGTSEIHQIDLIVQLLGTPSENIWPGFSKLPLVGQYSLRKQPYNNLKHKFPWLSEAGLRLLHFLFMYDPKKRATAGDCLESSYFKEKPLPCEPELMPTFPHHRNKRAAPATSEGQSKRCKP

MAP3K5 = MAP3K5 (Homo sapiens, UniProt Q99683)
Chain of MAP3K5 (Q99683 whole entry): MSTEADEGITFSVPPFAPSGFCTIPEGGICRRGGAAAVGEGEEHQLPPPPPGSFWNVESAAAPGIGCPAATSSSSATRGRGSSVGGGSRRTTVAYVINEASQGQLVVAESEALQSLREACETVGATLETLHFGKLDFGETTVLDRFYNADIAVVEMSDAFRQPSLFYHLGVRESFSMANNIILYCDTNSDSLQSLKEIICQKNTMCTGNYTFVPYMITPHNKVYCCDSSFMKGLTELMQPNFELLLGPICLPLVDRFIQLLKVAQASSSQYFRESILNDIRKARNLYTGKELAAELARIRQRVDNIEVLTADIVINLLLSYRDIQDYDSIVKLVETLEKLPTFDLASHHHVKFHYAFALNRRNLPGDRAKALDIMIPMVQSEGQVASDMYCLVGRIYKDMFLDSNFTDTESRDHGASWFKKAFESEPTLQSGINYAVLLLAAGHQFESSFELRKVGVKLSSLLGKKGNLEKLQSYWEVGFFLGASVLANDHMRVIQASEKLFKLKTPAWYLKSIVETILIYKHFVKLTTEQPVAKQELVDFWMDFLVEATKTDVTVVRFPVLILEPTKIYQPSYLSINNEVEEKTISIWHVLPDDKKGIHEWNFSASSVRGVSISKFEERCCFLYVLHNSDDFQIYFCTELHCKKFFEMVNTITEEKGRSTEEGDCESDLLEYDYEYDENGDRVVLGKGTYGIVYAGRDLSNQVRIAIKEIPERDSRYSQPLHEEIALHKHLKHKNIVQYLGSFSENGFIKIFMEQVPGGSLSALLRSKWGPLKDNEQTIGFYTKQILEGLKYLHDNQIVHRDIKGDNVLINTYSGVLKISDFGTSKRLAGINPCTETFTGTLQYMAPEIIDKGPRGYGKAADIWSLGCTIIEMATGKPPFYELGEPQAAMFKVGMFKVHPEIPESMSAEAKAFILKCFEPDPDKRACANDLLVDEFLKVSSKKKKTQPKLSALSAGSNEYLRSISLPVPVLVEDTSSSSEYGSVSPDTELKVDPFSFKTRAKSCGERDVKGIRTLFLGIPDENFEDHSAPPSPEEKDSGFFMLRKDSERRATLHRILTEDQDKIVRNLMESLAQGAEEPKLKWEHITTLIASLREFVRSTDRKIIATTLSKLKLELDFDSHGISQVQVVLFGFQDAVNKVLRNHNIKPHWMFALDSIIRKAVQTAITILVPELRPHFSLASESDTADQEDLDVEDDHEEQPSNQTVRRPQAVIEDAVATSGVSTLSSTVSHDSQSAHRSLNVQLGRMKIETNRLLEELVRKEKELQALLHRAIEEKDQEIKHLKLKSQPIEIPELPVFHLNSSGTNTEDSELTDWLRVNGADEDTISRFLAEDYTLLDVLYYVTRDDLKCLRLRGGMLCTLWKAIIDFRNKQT

MAPK6 = MAPK6 (Homo sapiens, UniProt Q16659)
Chain of MAPK6 (Q16659 whole entry): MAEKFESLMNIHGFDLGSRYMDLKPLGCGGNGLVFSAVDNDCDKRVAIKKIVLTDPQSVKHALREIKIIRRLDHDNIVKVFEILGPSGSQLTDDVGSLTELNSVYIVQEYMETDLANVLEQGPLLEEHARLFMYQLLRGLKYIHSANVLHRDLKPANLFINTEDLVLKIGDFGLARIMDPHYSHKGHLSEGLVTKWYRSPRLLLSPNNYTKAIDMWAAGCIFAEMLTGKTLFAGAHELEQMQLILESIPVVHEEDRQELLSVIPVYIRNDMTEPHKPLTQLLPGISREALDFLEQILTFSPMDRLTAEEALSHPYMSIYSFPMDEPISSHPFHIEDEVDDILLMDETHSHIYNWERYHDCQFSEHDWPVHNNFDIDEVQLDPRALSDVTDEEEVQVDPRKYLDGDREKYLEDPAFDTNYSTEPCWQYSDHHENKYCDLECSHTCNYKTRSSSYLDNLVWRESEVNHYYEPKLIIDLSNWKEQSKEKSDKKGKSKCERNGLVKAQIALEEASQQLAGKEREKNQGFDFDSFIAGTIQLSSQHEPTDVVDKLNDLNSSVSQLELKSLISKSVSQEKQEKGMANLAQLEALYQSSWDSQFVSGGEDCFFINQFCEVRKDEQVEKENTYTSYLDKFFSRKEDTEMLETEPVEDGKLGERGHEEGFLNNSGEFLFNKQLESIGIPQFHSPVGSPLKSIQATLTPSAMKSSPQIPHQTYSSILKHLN

MKNK1 = MKNK1 (Homo sapiens, UniProt Q9BUB5)
Chain of MKNK1 (Q9BUB5 whole entry): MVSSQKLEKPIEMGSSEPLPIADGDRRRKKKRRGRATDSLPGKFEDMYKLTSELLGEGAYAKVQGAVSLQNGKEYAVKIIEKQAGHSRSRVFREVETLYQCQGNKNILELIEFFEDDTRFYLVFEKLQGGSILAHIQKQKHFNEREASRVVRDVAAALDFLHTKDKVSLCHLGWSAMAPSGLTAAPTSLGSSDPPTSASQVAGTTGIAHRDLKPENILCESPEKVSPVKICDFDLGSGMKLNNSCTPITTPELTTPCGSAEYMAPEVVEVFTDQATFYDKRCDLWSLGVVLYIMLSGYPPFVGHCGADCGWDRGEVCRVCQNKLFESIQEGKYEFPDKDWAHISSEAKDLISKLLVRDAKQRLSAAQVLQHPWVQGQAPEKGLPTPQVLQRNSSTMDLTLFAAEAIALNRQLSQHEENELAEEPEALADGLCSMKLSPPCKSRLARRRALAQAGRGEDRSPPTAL

| SMILES | pIC50 (BMPR2) | pIC50 (PIP4K2B) | pIC50 (RPS6KA1) | pIC50 (CDK6) | pIC50 (ACVR2B) | pIC50 (CHEK1) | pIC50 (RPS6KA3) | pIC50 (NEK3) | pIC50 (CDK10) | pIC50 (MAP3K5) | pIC50 (MAPK6) | pIC50 (MKNK1) |
| --- | --- | --- | --- | --- | --- | --- | --- | --- | --- | --- | --- | --- |
| CN1CCN(c2ccc(Nc3ncc(C#N)c(Nc4ccccc4C(N)=O)n3)cc2)CC1.Cl [TCMDC-134116] | 5.31 and 5.17 | 5.80 and 6.00 | 6.82 | 6.80 and 6.74 | < 4.70 | 6.66 | 7.05 and 6.92 | 5.96 | – | – | – | – |
| Cl.NCC1(c2nc(-c3ccc(Cl)c(O)c3)c(-c3ccncc3)[nH]2)CCCCC1 [TCMDC-141154] | – | – | < 4.70 | < 4.70 | – | < 4.70 | < 4.70 | < 4.70 | < 4.70 | < 4.70 | < 4.70 | < 4.70 |
| CN(C)CC(O)COc1ccc(Nc2ncc([N+](=O)[O-])c(Nc3ccccc3O)n2)cc1.O=C(O)C(F)(F)F (stereo not drawn) [TCMDC-141399] | < 4.70 | 6.01 | – | – | < 4.70 | – | – | – | 5.80 | < 4.70 | 6.49 | < 4.70 |
